Experimental data taken from ChEMBL document CHEMBL5661955, “ASAP - In vitro cytotoxicity” (2024).
Where “and” joins values, the source holds several entries; their conditions need not be identical. Equal values may be shown once.

Experiments:
[1] = Functional metabolic assay to measure dose dependent changes in cell viability from drug treatment in Vero E6/TMPRSS2 cells (cotreated with P-gp inhibitor, Elacridar). […] Cytotoxicity is reported via measuring absorbance and analysis of MTT/MTS assays in uninfected cells. The assay has been performed by Icahn School of Medicine at Mount Sinai.; format: toxicity, cell-based, VeroE6/TMPRSS2; conditions: chlorocebus sabaeus, p-gp concentration 2 uM
[2] = Functional assay to measure dose dependent changes in cell viability from drug treatment in Vero E6 miRFP670 cells (cotreated with P-gp inhibitor, CP100356) that are infected with Dengue virus type 2 New Guinea C. […] Cytotoxicity is reported via via analysis of DAPI count using high-content imager. The assay has been performed by KU Leuven.; format: toxicity, cell-based, Vero C1008; conditions: chlorocebus sabaeus, p-gp concentration 500 nM
[3] = (§1) Functional CPE-based assay to measure dose dependent changes in cell viability from drug treatment in Huh-7 cells. Cells are treated with antiviral candidates that have been serially diluted. Cytotoxicity is reported via analysis of MTT/ MTS assays in uninfected cells. The assay has been performed by National Institute of Allergy and Infectious Diseases.; format: toxicity; conditions: human
[4] = as §1, with “Vero E6 miRFP670” for “Huh-7”, “of” for “of MTT/”, “KU Leuven.” for “National Institute of Allergy and Infectious Diseases.”; format: toxicity, Vero C1008; conditions: chlorocebus sabaeus
[5] = as §1, with “Vero E6 miRFP670 cells (cotreated with P-gp inhibitor, CP100356).” for “Huh-7 cells.”, “of” for “of MTT/”, “KU Leuven.” for “National Institute of Allergy and Infectious Diseases.”; format: toxicity, Vero C1008; conditions: chlorocebus sabaeus, p-gp concentration 500 nM
[6] = Functional metabolic assay to measure dose dependent changes in cell viability from drug treatment in Vero E6/TMPRSS2 cells. Cells are treated with antiviral candidates that have been serially diluted. Cytotoxicity is reported via measuring absorbance and analysis of MTT/MTS assays in uninfected cells. The assay has been performed by Icahn School of Medicine at Mount Sinai.; format: toxicity, cell-based, VeroE6/TMPRSS2; conditions: chlorocebus sabaeus; for CC50: Vero E6/TMPRSS2 cells; for CC10: veroe6/tmprss2
[7] = Vero E6/TMPRSS2 cells, with Elacridar (P-gp inhibitor, concentration not stated)
[8] = with CP100356 (P-gp inhibitor, concentration not stated)
[9] = Vero E6 miRFP670 cells, with CP100356 (P-gp inhibitor, concentration not stated)

Structure (SMILES)	CC50 [1, 7] [µM]	CC50 [2, 8] [µM]	CC50 [3] [µM]	CC50 ([4]; Vero E6 miRFP670 cells) [µM]	CC10 ([1]; veroe6/tmprss2) [µM]	further results
c1ccc2sc(C3CCN(Cc4c[nH]c5ccccc45)CC3)nc2c1	49.2	5.31	18			CC50 ([1]; veroe6/tmprss2): > 50 µM
O=C(NCC(F)(F)F)c1cc(Cl)c(F)cc1NS(=O)(=O)c1ccc(Oc2ccccc2Cl)cc1		> 10	1.9	3.98		CC50 ([2]; vero c1008): 5.65 µM
CCc1cc(Br)cc2c(Cc3ccc(-c4nnn[nH]4)cc3)c[nH]c12		23.1		19.4		CC50 [5, 9]: 21.7 µM; CC50 ([4]; vero c1008): 17.9 µM; CC50 ([2]; vero c1008): 18.6 µM
COc1cc(Cc2c(-c3ccc(F)cc3)noc2C)nc(N2CCNCC2)n1		> 10	18			
NCc1cccc(NC(=O)[C@@H](NC(=O)OCc2ccccc2)c2ccc(OCc3ccccc3)cc2)c1		5.95	18			
CC1(C)Cc2sc(NC(=O)Cc3ccc(S(N)(=O)=O)cc3)c(C#N)c2CN1CC1CCCCC1			16	> 50		
CCCC[C@H](NC(C)=O)C(=O)N[C@H](C(=O)NCc1ccc(C(N)=O)cc1)c1ccc(OCc2ccccc2)cc1	> 50	> 10	15		> 50	
O=C(Nc1cc(Cl)cc(C(=O)Nc2ccc(C3CCNCC3)cc2)c1)OCc1ccccc1		3.1		2.82		CC50 [5, 9]: 1.43 µM
Cc1cc(-c2ccc([C@@H](NC(=O)OCc3ccccc3)C(=O)Nc3cccc(CN)c3)cc2)cs1	21.2				0.089	CC50 [6]: 6.25 µM; CC10 [6]: 7.281 µM
O=C(Nc1cc(Cl)cc(-c2ccc3cc(C(=O)O)[nH]c3c2)c1)OCc1ccccc1		24.8		< 0.391		CC50 [5, 9]: 38.1 µM
NCc1ccc(-c2ncc(OCC3CCNCC3)nc2-c2ccc(C3CCOCC3)cc2)cc1		> 10	32			
O=C(O)c1cc(Cl)ccc1NS(=O)(=O)c1ccc(Oc2ccccc2Cl)cc1						CC50 [6]: > 50 µM; CC10 [6]: > 50 µM
CCOc1cccc(-c2ccc(S(=O)(=O)Nc3ccc(Cl)cc3C(=O)O)cc2C)c1	> 50	21.9		36.1	0.027	
O=C(Nc1ccc2c(c1)CNC2)c1cc(Br)cc2[nH]c(Cc3ccccc3)nc12	16.5	9.98		11.6	0.199	
NCCc1cccc(NC(=O)[C@H]2[C@H]3CCCCC[C@H]3[C@H]2NC(=O)OCc2ccccc2)c1	4.88	7.53		7.48	0.282	CC50 [6]: 1.78 µM; CC10 [6]: 2.002 µM
NCCc1ccc([C@H]2C[C@@H]2c2cc(Cl)cc(NC(=O)OCc3ccccc3)c2)cc1		5.29		2.43		CC50 [5, 9]: 5.78 µM; CC50 ([2]; vero c1008): 4.57 µM
CCCCCC(=O)N[C@H](C(=O)Nc1ccc(C(N)=O)cc1)c1ccc(OCc2ccccc2)cc1		> 10	32			
CC(C)NC(=O)[C@H](Nc1ccc2c(c1)CNC2)c1cc(Cl)cc2[nH]ncc12	> 50			> 50	> 50	CC50 [5, 9]: > 50 µM; CC50 ([5]; vero c1008): 47.7 µM; CC50 ([2]; vero c1008): > 50 µM and 7.69 µM and 29 µM
CCc1nc2c(C(=O)Nc3ccc4c(c3)CNC4)cc(Br)cc2[nH]1	33.5	> 50		> 50	0.32	
O=C(Nc1ccc2c(c1)B(O)OC2)c1cccc(OCc2c(Cl)cccc2Cl)c1		> 10	1.9			CC50 [6]: > 50 µM; CC10 [6]: > 50 µM
